Data set [1] relates to American Cockroach (Periplaneta americana L.). Put plainly: whole plant or invertebrate. To be noted: 24 h; for mortality at 16 ppm: read-out: Cockroach, mortality, 16 ppm.
The test system of data set [2] is Aphids (Aphis gossypii Glover). Put plainly: whole plant or invertebrate. To be noted: in Cucumis sativus, 24 h; for mortality at 4 ppm: read-out: Aphids, mortality, 4 ppm; for mortality at 40 ppm: read-out: Aphids, mortality, 40 ppm (*).
The test system of data set [3] is Mosquito larvae (Aedes aegypti). Put plainly: whole plant or invertebrate. Particulars: 48 h, read-out: Mosquito, mortality, 0.05 ppm.
A short description of data set [4]: in vivo. Particulars: rat, po.
The test system of data set [5] is Flour Beetle (Tribolium confusum DuVal). Put plainly: whole plant or invertebrate. Particulars: in Triticum aestivum, 168 h, read-out: Flour Beetle, mortality, 5 ppm.
For data set [6], the system named is insects. Particulars: against a variety of insects; background, U.S. Pat. No. 3,474,171; cited from earlier work.
For data set [7], the system named is rats. Particulars: background statement; cited from earlier work.
Setting [8] is: topical, read-out: Cockroach, mortality, 100 ppm.
The mark [9] stands for this setting: read-out: Aphids, mortality, 0.64 ppm.

Read-outs that look alike come from different tables or passages of the source.

For `CN(SN(C)C(=O)Oc1cccc2c1OC(C)(C)C2)C(=O)Oc1cccc2c1OC(C)(C)C2` [Bis[O-(2,3-dihydro-2,2-dimethyl-7-benzofuranyl]-N-methylcarbamyl] sulfide], the mortality at 100 ppm in data set [1] (read-out: control of American cockroaches) was determined as 100%. In addition, the mortality at 0.64 ppm in data set [2] (read-out: control of aphids) came out at 100%.

For orientation: LD50 means the dose at which mortality reaches 50%. Consider `CN(SC(Cl)(Cl)Cl)C(=O)Oc1cccc2c1OC(C)(C)C2` [Compound 1, N-methyl-N-trichloromethylthio-2,3-dihydro-2,2-dimethyl-7-benzofuranyl carbamate], for which, in data set [3], the mortality at 0.05 ppm is 46%. Also, the LD50 in data set [4] fell in the range of 125 to 250 mg/kg. Besides, the mortality at 16 ppm in data set [1] (topical) is 15%. The mortality at 100 ppm in data set [1] (setting [8]) stood at 100%. Besides, the mortality at 0.64 ppm in data set [2] (setting [9]) was found to be 91%. In data set [2], the mortality at 4 ppm was 100%. Further, the mortality at 5 ppm in data set [5] is 100%.

`CSN(C)C(=O)Oc1cccc2c1OC(C)(C)C2` [Compound 3, 2,3-dihydro-2,2-dimethyl-7-benzofuranyl N-methyl N-methylthiocarbamate] came in with an LD50 in data set [4] of 5 to 25 mg/kg. In addition, in data set [1] (topical), the mortality at 16 ppm came out at 100%. Also, the mortality at 100 ppm in data set [1] (setting [8]) stood at 100%. Further, in data set [2] (setting [9]), the mortality at 0.64 ppm stood at 97%. The mortality at 4 ppm in data set [2] came out at 100%.

For `CN(Sc1ccc(Cl)cc1)C(=O)Oc1cccc2c1OC(C)(C)C2` [Compound 4, 2,3-dihydro-2,2-dimethyl-7-benzofuranyl N-methyl N-p-chlorophenylthiocarbamate], the mortality at 0.05 ppm in data set [3] amounted to 100%. Also, the LD50 in data set [4] fell in the range of 25 to 41 mg/kg. Moreover, the mortality at 16 ppm in data set [1] (topical) came to 5%. In addition, the mortality at 100 ppm in data set [1] (setting [8]) worked out at 100%. In data set [2] (setting [9]), the mortality at 0.64 ppm is 97%. The mortality at 4 ppm in data set [2] amounted to 100%. Further, in data set [5], the mortality at 5 ppm amounted to 96%.

As to `CN(SC(Cl)=C(Cl)Cl)C(=O)Oc1cccc2c1OC(C)(C)C2` [Compound 5, N-methyl-N-trichlorovinylthio-2,3-dihydro-2,2-dimethyl-7-benzofuranyl carbamate], the mortality at 16 ppm in data set [1] (topical) was 47%. In data set [1] (setting [8]), the mortality at 100 ppm worked out at 100%. For the same compound, the mortality at 0.64 ppm in data set [2] (setting [9]) came to 100%. In addition, the mortality at 4 ppm in data set [2] was 100%.

Regarding `CCCCSN(C)C(=O)Oc1cccc2c1OC(C)(C)C2` [Compound 6], in data set [3], the mortality at 0.05 ppm was 100%. The same compound came in with an LD50 in data set [4] of 60 to 125 mg/kg. Also, the mortality at 16 ppm in data set [1] (topical) turned out to be 95%. Also, the mortality at 100 ppm in data set [1] (setting [8]) came out at 100%. In addition, the mortality at 0.64 ppm in data set [2] (setting [9]) was 97%. For the same compound, the mortality at 4 ppm in data set [2] was found to be 100%.

As for `CCSN(C)C(=O)Oc1cccc2c1OC(C)(C)C2` [Compound 7, N-methyl-N-ethylthio-2,3-dihydro-2,2-dimethyl-7-benzofuranyl carbamate], the mortality at 0.05 ppm in data set [3] was 26%. The compound also registered an LD50 in data set [4] of 25 to 125 mg/kg. The mortality at 0.64 ppm in data set [2] (setting [9]) was found to be 92%.

In data set [4], `CCCCCCCCCCCCSN(C)C(=O)Oc1cccc2c1OC(C)(C)C2` [Compound 8, N-methyl-N-dodecylthio-2,3-dihydro-2,2-dimethyl-7-benzofuranyl carbamate] returned an LD50 greater than 125 mg/kg. The mortality at 16 ppm in data set [1] (topical) amounted to 0%. Besides, the mortality at 100 ppm in data set [1] (setting [8]) is 20%. Also, the mortality at 40 ppm in data set [2] was 100%.

In the case of `CN(Sc1ccccc1)C(=O)Oc1cccc2c1OC(C)(C)C2` [Compound 9, N-methyl-N-phenylthio-2,3-dihydro-2,2-dimethyl-7-benzofuranyl carbamate], in data set [4], the LD50 fell in the range of 25 to 125 mg/kg. Also, the mortality at 16 ppm in data set [1] (topical) is 37%. The mortality at 100 ppm in data set [1] (setting [8]) worked out at 100%. Also, the mortality at 0.64 ppm in data set [2] (setting [9]) was 98%. Moreover, the mortality at 4 ppm in data set [2] was determined as 100%.

Take `Cc1ccc(SN(C)C(=O)Oc2cccc3c2OC(C)(C)C3)cc1` [Compound 10]: in data set [4], the LD50 fell in the range of 25 to 125 mg/kg. In addition, in data set [1] (topical), the mortality at 16 ppm was 2%. In data set [1] (setting [8]), the mortality at 100 ppm turned out to be 100%. Further, the mortality at 0.64 ppm in data set [2] (setting [9]) came to 96%. In addition, the mortality at 4 ppm in data set [2] is 100%. Moreover, the mortality at 5 ppm in data set [5] came to 76%.

As to `CN(Sc1ccc(Cl)c(Cl)c1)C(=O)Oc1cccc2c1OC(C)(C)C2` [Compound 11], the mortality at 0.05 ppm in data set [3] amounted to 100%. In data set [4], the LD50 was 25 to 125 mg/kg. Besides, the mortality at 0.64 ppm in data set [2] (setting [9]) was determined as 97%.

Take `CN(Sc1cc(Cl)ccc1Cl)C(=O)Oc1cccc2c1OC(C)(C)C2` [Compound 12]: in data set [3], the mortality at 0.05 ppm was 100%. The compound also showed an LD50 in data set [4] of 25 to 125 mg/kg. For the same compound, the mortality at 0.64 ppm in data set [2] (setting [9]) came to 61%.

On to `CN(Sc1ccc(Br)cc1)C(=O)Oc1cccc2c1OC(C)(C)C2` [Compound 13], for which the mortality at 0.05 ppm in data set [3] turned out to be 93%. The compound also showed an LD50 in data set [4] of 25 to 125 mg/kg. The mortality at 0.64 ppm in data set [2] (setting [9]) was determined as 98%.

As for `CN(Sc1ccc(F)cc1)C(=O)Oc1cccc2c1OC(C)(C)C2` [Compound 14, N-methyl-N-4-fluorophenylthio-2,3-dihydro-2,2-dimethyl-7-benzofuranyl carbamate], in data set [3], the mortality at 0.05 ppm is 100%. In addition, the LD50 in data set [4] was 25 to 125 mg/kg. In addition, the mortality at 0.64 ppm in data set [2] (setting [9]) turned out to be 92%.

As for `CN(Sc1ccc([N+](=O)[O-])cc1)C(=O)Oc1cccc2c1OC(C)(C)C2` [Compound 15], the LD50 in data set [4] lay in the range of 25 to 60 mg/kg. Besides, the mortality at 16 ppm in data set [1] (topical) was 97%. Moreover, the mortality at 100 ppm in data set [1] (setting [8]) was 100%. The mortality at 0.64 ppm in data set [2] (setting [9]) is 96%. Further, the mortality at 4 ppm in data set [2] is 100%.

As to `CN(Sc1ccc(C(C)(C)C)cc1)C(=O)Oc1cccc2c1OC(C)(C)C2` [Compound 16], the LD50 in data set [4] lay in the range of 125 to 250 mg/kg. The mortality at 16 ppm in data set [1] (topical) was found to be 0%. Further, in data set [1] (setting [8]), the mortality at 100 ppm turned out to be 67%. Besides, the mortality at 40 ppm in data set [2] is 100%.

As for `CNC(=O)Oc1cccc2c1OC(C)(C)C2` [FURADAN, N-methyl 2,3-dihydro-2,2-dimethyl-7-benzofuranyl carbamate, reference compound], the mortality at 0.05 ppm in data set [3] amounted to 0%. The LD50 in data set [4] turned out to be 11 mg/kg. Besides, the “contact and systemic activity” value in data set [6] was “high contact and systemic activity”. Also, the mortality at 16 ppm in data set [1] (topical) was 100%. For the same compound, the mortality at 100 ppm in data set [1] (setting [8]) is 100%. The mortality at 0.64 ppm in data set [2] (setting [9]) was in the range of 73 to 98%. Besides, the mortality at 4 ppm in data set [2] turned out to be 100%. For the same compound, in data set [7], the “oral toxicity, LD50 (rats)” value is 5 to 11 mg/kg. For the same compound, the mortality at 5 ppm in data set [5] is 10%.

These data come from US4013774A (priority 1975, dated 1977).
